Key:
HeLa cells = experiment: Necrosis assay; type: cell-based; conditions: Homo sapiens, HeLa, 0.5 h, read-out: HeLa necrosis EC50 range
Description: HeLa cells (ATCC CCL-002) were grown in minimal essential medium (Invitrogen catalog no. 42360) containing 10% fetal bovine serum, 100 IU/ml penicillin and 100 μg/ml streptomycin. 4,000-6,000 cells were seeded into 96-well black ViewPlates-plates, clear bottom, (Perkin Elmer) in 100 μl medium and incubated overnight. Compounds were dissolved and pre-diluted in DMSO in 96-well polypropylene plates (Greiner) in a concentration range of 15 μM to 600 μM. At the time of the experiment cell plates were placed on heating blocks at 37° C., medium was removed and 40 μl fresh, pre-warmed medium was added per well. Cells were incubated for 15 min before addition of compounds. In parallel, 3 μl of compounds were diluted with 197 μl growth medium on a Tecan freedom-EVO pipetting station using 250 μl/s pipetting speed, in order to ensure effective mixing of the highly concentrated compound solutions with the aqueous phase. These pre-dilution plates were then equilibrated on heating blocks at 37° C. for 10 min. 80 μl pre-diluted compound were transferred manually to the corresponding wells containing HeLa cells yielding compound concentrations of 10 μM to 400 μM. Control conditions were 1% DMSO in growth medium (100% viability) and 400 μM ingenol mebutate in growth medium (0% viability). Plates were incubated on the heating blocks at 37° C. for 30 min. At the end of the incubation 10 μl PrestoBlue reagent (Invitrogen) were added to each well, plates were sealed with black seal, followed by incubation at 37° C. for 10 min with gentle shaking (150 rpm). Subsequently, plates were placed at room temperature for 20-30 min. Plates were read immediately after on an Envision Fluorescence reader (Perkin Elmer) with excitation at 535 nm and emission at 630 nm. Test compound titration curves were fitted to a four-parameter sigmoidal curve after normalizing the effect of the test compound to the effect of the positive control (4 10^−4 M PEP0005/ingenol mebutate). AbsEC50 denotes the concentration of test compound producing 50% effect.

[1] = tested on: PMN's (polymorphonuclear leukocytes); experiment: Neutrophil oxidative burst; type: cell-based; conditions: Leukocyte, 40 min, read-out: Neutrophil oxidative burst Rel EC50 range, PMN from buffy coats, 40 min at RT, hydroethidine fluorescence; normalized to 5×10^−7 M PEP0005
Description: PMN's (polymorphonuclear leukocytes) were isolated and purified from fresh buffy coats by sequential sedimentation, density centrifugation and lysis of contaminating erythrocytes. Buffy coats were incubated with 2% methocel for 30-45 min to differentially sediment red blood cells. The leukocyte-rich supernatant was transferred to lymphoprep tubes to remove mononuclear cells by density centrifugation (400×g, 30 min). The pellet was resuspended and any remaining erythrocytes lysed using 0.2% NaCl for 30 sec before restoring isotonicity by the addition of 1.2% NaCl. This step was repeated until the cell pellet appears relatively free of red blood cells. Cells were resuspended in DPBS (Dulbecco's Phosphate Buffered Saline) (w.o. Ca^2+, Mg^2+) and the concentration adjusted to 1.4×10^6 cells/ml in HBSS (Hanks Balanced Salt solution) (w Ca^2+, Mg^2±) containing 0.1% BSA (Bovine Serum Albumin) and 5 mM glucose just prior to assay initiation. Titrated reference and test compounds were pre-mixed with HE (Hydroethidine) (10 μM final assay concentration) before addition to 96-well plates containing 2.5×10^5 cells. Following 40 min incubation at RT, changes in the respiratory burst was estimated by measuring fluorescence at 579 nm (excitation: 485 nm) using an Envision plate reader.
Test compound titration curves were fitted to a four-parameter sigmoidal curve after normalizing the effect of the test compound to the effect of the positive control (5×10^−7 M PEP0005). Rel EC50 denotes the concentration of test compound producing an effect that is midway between the fitted top and bottom. Abs EC50 is the concentration of test compound that provokes a response corresponding to 50% of the maximal effect associated with the positive control (5×10^−7 M PEP0005).

| SMILES | EC50 (HeLa cells) | EC50 [1] |
| --- | --- | --- |
| CC1=C[C@]23C(=O)[C@@H](C=C(CO)[C@@H](O)[C@]2(O)[C@H]1OC(=O)[C@@H]1CCCN1c1ccccc1)[C@H]1[C@@H](C[C@H]3C)C1(C)C [Compound 545, Ingenol 3-((2S)-1-phenylpyrrolidine-2-carboxylate)] | 150000 to 350000 nM | 20 to 100 nM |
| CC1=C[C@]23C(=O)[C@@H](C=C(CO)[C@@H](O)[C@]2(O)[C@H]1OC(=O)N(C)C(C)CC#N)[C@H]1[C@@H](C[C@H]3C)C1(C)C (stereo partly shown) [Compound 715, Ingenol 3-(N-(2-cyano-1-methyl-ethyl)-N-methyl-carbamate)] | > 350000 nM | > 100 nM |
| CC1=C[C@]23C(=O)[C@@H](C=C(CO)[C@@H](O)[C@]2(O)[C@H]1OC(=O)c1c(C)nn(CC2CCOCC2)c1C)[C@H]1[C@@H](C[C@H]3C)C1(C)C [Compound 561, Ingenol 3-(3,5-dimethyl-1-(tetrahydropyran-4-ylmethyl)pyrazole-4-carboxylate)] | 150000 to 350000 nM | 20 to 100 nM |
| CC1=C[C@]23C(=O)[C@@H](C=C(CO)[C@@H](O)[C@]2(O)[C@H]1OC(=O)N1CC(=O)Nc2ccccc21)[C@H]1[C@@H](C[C@H]3C)C1(C)C [Compound 733, Ingenol 3-(3-oxo-2,4-dihydroquinoxaline-1-carboxylate)] | 150000 to 350000 nM | > 100 nM |
| CC1=C[C@]23C(=O)[C@@H](C=C(CO)[C@@H](O)[C@]2(O)[C@H]1OC(=O)N(C)C1CCC1)[C@H]1[C@@H](C[C@H]3C)C1(C)C [Compound 749, Ingenol 3-(N-cyclobutyl-N-methyl-carbamate)] | > 350000 nM | < 20 nM |
| CC1=C[C@]23C(=O)[C@@H](C=C(CO)[C@@H](O)[C@]2(O)[C@H]1OC(=O)c1nccc2ccccc12)[C@H]1[C@@H](C[C@H]3C)C1(C)C [Compound 512, Ingenol 3-(isoquinoline-1-carboxylate)] | < 150000 nM | 20 to 100 nM |
| CC1=C[C@]23C(=O)[C@@H](C=C(CO)[C@@H](O)[C@]2(O)[C@H]1OC(=O)c1cncn1-c1ccccc1)[C@H]1[C@@H](C[C@H]3C)C1(C)C [Compound 515, Ingenol 3-(3-phenylimidazole-4-carboxylate)] | < 150000 nM | < 20 nM |
| CC1=C[C@]23C(=O)[C@@H](C=C(CO)[C@@H](O)[C@]2(O)[C@H]1OC(=O)c1ccnc2ccccc12)[C@H]1[C@@H](C[C@H]3C)C1(C)C [Compound 513, Ingenol 3-(quinoline-4-carboxylate)] | < 150000 nM | < 20 nM |
| C#CCN(C)C(=O)O[C@H]1C(C)=C[C@]23C(=O)[C@@H](C=C(CO)[C@@H](O)[C@]12O)[C@H]1[C@@H](C[C@H]3C)C1(C)C [Compound 751, Ingenol 3-(N-methyl-N-prop-2-ynyl-carbamate)] | > 350000 nM | 20 to 100 nM |
| CCNC(=O)O[C@H]1C(C)=C[C@]23C(=O)[C@@H](C=C(CO)[C@@H](O)[C@]12O)[C@H]1[C@@H](C[C@H]3C)C1(C)C [Compound 701, Ingenol 3-(N-ethyl-carbamate)] | – | 20 to 100 nM |
| CC1=C[C@]23C(=O)[C@@H](C=C(CO)[C@@H](O)[C@]2(O)[C@H]1OC(=O)c1cc(-c2ccccc2)on1)[C@H]1[C@@H](C[C@H]3C)C1(C)C [Compound 511, Ingenol 3-(5-phenylisoxazole-3-carboxylate)] | < 150000 nM | 20 to 100 nM |
| CC1=C[C@]23C(=O)[C@@H](C=C(CO)[C@@H](O)[C@]2(O)[C@H]1OC(=O)c1noc(C)c1C)[C@H]1[C@@H](C[C@H]3C)C1(C)C [Compound 569, Ingenol 3-(4,5-dimethylisoxazole-3-carboxylate)] | 150000 to 350000 nM | 20 to 100 nM |
| CC1=C[C@]23C(=O)[C@@H](C=C(CO)[C@@H](O)[C@]2(O)[C@H]1OC(=O)N(C)c1ccc(F)cc1)[C@H]1[C@@H](C[C@H]3C)C1(C)C [Compound 730, Ingenol 3-(N-(4-fluoro-phenyl)-N-methyl-carbamate)] | 150000 to 350000 nM | – |
| COc1ccccc1N(C)C(=O)O[C@H]1C(C)=C[C@]23C(=O)[C@@H](C=C(CO)[C@@H](O)[C@]12O)[C@H]1[C@@H](C[C@H]3C)C1(C)C [Compound 731, Ingenol 3-(N-methyl-N-(2-methoxy-phenyl)-carbamate)] | 150000 to 350000 nM | 20 to 100 nM |
| CC1=C[C@]23C(=O)[C@@H](C=C(CO)[C@@H](O)[C@]2(O)[C@H]1OC(=O)c1c(C)nc2ccccn12)[C@H]1[C@@H](C[C@H]3C)C1(C)C [Compound 535, Ingenol 3-(2-methylimidazo[1,2-a]pyridine-3-carboxylate)] | 150000 to 350000 nM | < 20 nM |
| CC1=C[C@]23C(=O)[C@@H](C=C(CO)[C@@H](O)[C@]2(O)[C@H]1OC(=O)C12CCC(C)(C(=O)O1)C2(C)C)[C@H]1[C@@H](C[C@H]3C)C1(C)C [Compound 503, Ingenol 3-(1S-camphanate)] | – | 20 to 100 nM |
| C=CCN(C)C(=O)O[C@H]1C(C)=C[C@]23C(=O)[C@@H](C=C(CO)[C@@H](O)[C@]12O)[C@H]1[C@@H](C[C@H]3C)C1(C)C [Compound 750, Ingenol 3-(N-allyl-N-methyl-carbamate)] | > 350000 nM | < 20 nM |
| CC1=C[C@]23C(=O)[C@@H](C=C(CO)[C@@H](O)[C@]2(O)[C@H]1OC(=O)c1ncccc1Br)[C@H]1[C@@H](C[C@H]3C)C1(C)C [Compound 524, Ingenol 3-(3-bromopyridine-2-carboxylate)] | 150000 to 350000 nM | 20 to 100 nM |
| CC1=C[C@]23C(=O)[C@@H](C=C(CO)[C@@H](O)[C@]2(O)[C@H]1OC(=O)N1CCC(=O)c2ccccc21)[C@H]1[C@@H](C[C@H]3C)C1(C)C [Compound 725, Ingenol 3-(4-oxo-2,3-dihydroquinoline-1-carboxylate)] | 150000 to 350000 nM | < 20 nM |
| CC1=C[C@]23C(=O)[C@@H](C=C(CO)[C@@H](O)[C@]2(O)[C@H]1OC(=O)N(C)C1CCN(C(=O)OC(C)(C)C)CC1)[C@H]1[C@@H](C[C@H]3C)C1(C)C [Compound 742, Ingenol 3-(N-methyl-N—(N-(tert-butyloxycarbonyl)-4-piperidyl)-carbamate)] | 150000 to 350000 nM | 20 to 100 nM |
| CC1=C[C@]23C(=O)[C@@H](C=C(CO)[C@@H](O)[C@]2(O)[C@H]1OC(=O)c1sc(=O)[nH]c1C)[C@H]1[C@@H](C[C@H]3C)C1(C)C [Compound 562, Ingenol 3-(4-methyl-2-oxo-3H-thiazole-5-carboxylate)] | > 350000 nM | 20 to 100 nM |
| CCn1c(C)cc(C)c1C(=O)O[C@H]1C(C)=C[C@]23C(=O)[C@@H](C=C(CO)[C@@H](O)[C@]12O)[C@H]1[C@@H](C[C@H]3C)C1(C)C [Compound 543, Ingenol 3-(1-ethyl-3,5-dimethylpyrrole-2-carboxylate)] | < 150000 nM | < 20 nM |
| CC1=C[C@]23C(=O)[C@@H](C=C(CO)[C@@H](O)[C@]2(O)[C@H]1OC(=O)N(C)c1cc(C)nn1C)[C@H]1[C@@H](C[C@H]3C)C1(C)C [Compound 719, Ingenol 3-(N-(2,5-dimethylpyrazol-3-yl)-N-methyl-carbamate)] | > 350000 nM | > 100 nM |

Reference: patent US9708286B2, “Ingenol-3-acylates III and ingenol-3-carbamates” (LEO Laboratories Limited, priority 2010, dated 2017)
